Values quoted from earlier work as cited in patent US8092782B2, “Polybiotin compounds of magnetic resonance imaging and drug delivery” (priority 2003, dated 2012).

solubility in water: insoluble
Substance: triacetyl-beta-cyclodextrin
